Consider one compound from patent US8344025B2, “Oxalic acid derivatives and use thereof as physiological cooling active ingredients” (Symrise AG, priority 2007, dated 2013).

This assay has as its system panel of experts. The assay is described as follows: Organoleptic test of cooling action in confectioner's fondant, rated by a panel of experts. Conditions: scale from 1 (no cooling action) to 9 (extremely strong cooling action), 0.05 wt. % relative to the complete preparation. The format is in vivo. As to the method: The compounds according to Examples 1 to 12 were tested for their organoleptic properties, in particular their cooling action. To this end, they were dissolved, in each case in a specific final concentration, in a mass prepared from sucrose (saccharose) and water (confectioner's fondant, supplier Nordzucker AG, Nordstemmen) and evaluated by a panel of experts. Sensory impressions were rated and the cooling action was assessed on a scale from 1 (no cooling action) to 9 (extremely strong cooling action). The results were convincing in every case.

In the case of `CNC(=O)C(=O)O[C@@H]1C[C@H](C)CC[C@H]1C(C)C` [Example 2, L-menthyl N-methyl oxamate], the cooling action came out at 6.
